Biological target: T1, human MC5R (hMC5R) (Homo sapiens, UniProt P33032)
T1 construct: purchased Perkin Elmer RBXMC5M400UA
Test: Human MC5R radioligand binding assay ([125I] NDP-MSH displacement)
Conditions: hMC5R membranes, [125I] NDP-MSH; tested as trifluoroacetate or hydrochloride salts or free bases; read-out: MC5R radioligand IC50
Description: Assessments of compound binding to human MC5R (hMC5R) by displacement of an ^125I-labeled NDP-MSH receptor ligand peptide were performed essentially as described in the data sheets produced by Perkin Elmer to accompany their frozen hMC5R membranes (Perkin Elmer catalog number RBXMC5M400UA).
Na^125I (0.5 mCi, 17.4 Ci/mg) was added to 50 μL sodium phosphate (50 mM, pH 7.4) in an eppendorf tube precoated with IODOGEN. After incubation for 10 mins the phosphate buffer containing the iodine was added to NDP-MSH (10 ul at 1 mg/mL) in a separate eppendorf tube. This was incubated for a further 10 mins. The iodinated NDP-MSH was purified by HPLC on a Zorbax SB 300 column using solvent A: 0.05% TFA and solvent B: 90% acetonitrile 0.045% TFA with a linear gradient, 0-67% B over 60 mins. The ^125I NDP-MSH eluted at 52 min after the unlabeled starting material (48 min) and was counted and stored in the freezer.
Incubation buffer: 25 mM HEPES-KOH (pH 7.0), 1.5 mM CaCl2, 1 mM MgSO4, 0.1 M NaCl, 1 mM 1,10-phenanthroline, and 1 Complete™ protease inhibitor tablet/100 mL (Roche, catalog number 1873580)
Perkin Elmer frozen hMC5 membranes: catalog number RBXMC5M400UA, 0.4 mL/vial; 400 microassays/vial. 0.78 mg/mL protein concentration
Vials of frozen membranes were thawed rapidly immediately before use, diluted with binding buffer and vortexed. Resuspended membranes were kept on ice until they were added to the wells of the plate.
Assays were performed in 96 well polypropylene plates. […] This was incubated for 1 hr at 37° C. […] Non-specific binding just under 5%.
Representative compounds of the present invention were tested for binding in the hMC5R assay as in Example 46, as listed in Table 3. The compounds were tested as their trifluoroacetate or hydrochloride salts, or as their free bases.

T1 sequence (P33032 whole entry): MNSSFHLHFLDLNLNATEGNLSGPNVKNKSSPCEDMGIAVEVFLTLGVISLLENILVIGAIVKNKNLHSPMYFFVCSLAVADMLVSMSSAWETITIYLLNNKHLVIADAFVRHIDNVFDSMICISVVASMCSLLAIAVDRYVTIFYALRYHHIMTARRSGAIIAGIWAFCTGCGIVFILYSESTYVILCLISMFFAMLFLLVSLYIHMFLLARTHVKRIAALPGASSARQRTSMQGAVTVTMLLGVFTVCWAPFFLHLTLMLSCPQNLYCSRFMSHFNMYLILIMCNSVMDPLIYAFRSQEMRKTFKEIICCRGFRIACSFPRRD

IC50 [nM]	Compound
< 1000	CC[C@H](CN1CC[C@@H](CNC(=O)c2ccc3ccccc3c2)N[C@@H](CCC(=O)NC2CCCCC2)C1=O)c1ccccc1 [Compound 73, N-(((3S,5S)-3-(3-(cyclohexylamino)-3-oxopropyl)-2-oxo-1-((S)-2-phenylbutyl)-1,4-diazepan-5-yl)methyl)-2-naphthamide]
< 100	CC[C@H](CN1CC[C@@H](CNC(=O)c2ccc3cc(Cl)ccc3c2)N[C@@H](CCOC)C1=O)c1ccccc1 [Compound 77, 6-chloro-N-(((3S,5S)-3-(2-methoxyethyl)-2-oxo-1-((S)-2-phenylbutyl)-1,4-diazepan-5-yl)methyl)-2-naphthamide]
< 1000	N=C(N)NOCC[C@@H]1N[C@H](CNC(=O)c2ccc3ccccc3c2)CCN(CC(c2ccccc2)c2ccccc2)C1=O [Compound 46, N-(((3S,5S)-1-(2,2-diphenylethyl)-3-(2-(guanidinooxy)ethyl)-2-oxo-1,4-diazepan-5-yl)methyl)-2-naphthamide]
< 1000	O=C(NC[C@@H]1CCN(CC(c2ccccc2)c2ccccc2)C(=O)[C@H](CCC(=O)N2CCCCC2)N1)c1ccc2ccccc2c1 [Compound 55, N-(((3S,5S)-1-(2,2-diphenylethyl)-2-oxo-3-(3-oxo-3-(piperidin-1-yl)propyl)-1,4-diazepan-5-yl)methyl)-2-naphthamide]
< 1000	O=C(NC[C@@H]1CCN(CC(c2ccccc2)c2ccccc2)C(=O)[C@H](Cc2ccccc2)N1)c1ccc2ccccc2c1 [Compound 61, N-(((3S,5S)-3-benzyl-1-(2,2-diphenylethyl)-2-oxo-1,4-diazepan-5-yl)methyl)-2-naphthamide]
< 1000	CCCC[C@@H]1N[C@H](CNC(=O)c2ccc3ccccc3c2)CCN(CC(c2ccccc2)c2ccccc2)C1=O [Compound 49, N-(((3S,5S)-3-butyl-1-(2,2-diphenylethyl)-2-oxo-1,4-diazepan-5-yl)methyl)-2-naphthamide]
< 1000	O=C(NC[C@@H]1CCN(CC(c2ccccc2)c2ccccc2)C(=O)[C@H](Cc2cccnc2)N1)c1ccc2ccccc2c1 [Compound 47, N-(((3S,5S)-1-(2,2-diphenylethyl)-2-oxo-3-(pyridin-3-ylmethyl)-1,4-diazepan-5-yl)methyl)-2-naphthamide]
< 10000	O=C(NC[C@@H]1CCN(CC(c2ccccc2)c2ccccc2)C(=O)[C@H](Cc2ccccc2N2CCCCC2)N1)c1ccc2ccccc2c1 [Compound 71, N-(((3S,5S)-1-(2,2-diphenylethyl)-2-oxo-3-(2-(piperidin-1-yl)benzyl)-1,4-diazepan-5-yl)methyl)-2-naphthamide]
< 10000	CC[C@H](CN1CC[C@@H](CNC(=O)c2ccc3cc(Cl)ccc3c2)N[C@@H](CC(C)C)C1=O)c1ccccc1 [Compound 79, 6-chloro-N-(((3S,5S)-3-isobutyl-2-oxo-1-((S)-2-phenylbutyl)-1,4-diazepan-5-yl)methyl)-2-naphthamide]
< 1000	CCCC[C@@H]1N[C@H](CNC(=O)c2ccc3cc(Cl)ccc3c2)CCN(C[C@@H](CC)c2ccccc2)C1=O [Compound 70, N-(((3S,5S)-3-butyl-2-oxo-1-((S)-2-phenylbutyl)-1,4-diazepan-5-yl)methyl)-6-chloro-2-naphthamide]
< 1000	CCCCN(C)C(=O)CC[C@@H]1N[C@H](CNC(=O)c2ccc3ccccc3c2)CCN(C[C@@H](CC)c2ccccc2)C1=O [Compound 72, N-(((3S,5S)-3-(3-(butyl(methyl)amino)-3-oxopropyl)-2-oxo-1-((S)-2-phenylbutyl)-1,4-diazepan-5-yl)methyl)-2-naphthamide]
< 1000	O=C(NC[C@@H]1CCN(CC(c2ccccc2)c2ccccc2)C(=O)[C@H](CCC2CCCCC2)N1)c1ccc2ccccc2c1 [Compound 59, N-(((3S,5S)-3-(2-cyclohexylethyl)-1-(2,2-diphenylethyl)-2-oxo-1,4-diazepan-5-yl)methyl)-2-naphthamide]
< 10000	O=C(/C=C/c1ccc(Cl)cc1)NC[C@@H]1CCN(CC(c2ccccc2)c2ccccc2)C(=O)[C@H](Cc2ccccn2)N1 [Compound 45, (E)-3-(4-chlorophenyl)-N-(((3S,5S)-1-(2,2-diphenylethyl)-2-oxo-3-(pyridin-2-ylmethyl)-1,4-diazepan-5-yl)methyl)acrylamide]
< 1000	Nc1ccccc1C[C@@H]1N[C@H](CNC(=O)/C=C/c2ccc(Cl)cc2)CCN(CC(c2ccccc2)c2ccccc2)C1=O [Compound 68]

More lines, now with the values behind:

Compound	IC50 [nM]
O=C(NC[C@@H]1CCN(CC(c2ccccc2)c2ccccc2)C(=O)[C@H](Cc2ccncc2)N1)c1ccc2ccccc2c1 [Compound 48, N-(((3S,5S)-1-(2,2-diphenylethyl)-2-oxo-3-(pyridin-4-ylmethyl)-1,4-diazepan-5-yl)methyl)-2-naphthamide]	< 10000
CCCCCC[C@@H]1N[C@H](CNC(=O)c2ccc3cc(Cl)ccc3c2)CCN(C[C@@H](CC)c2ccccc2)C1=O [Compound 75, 6-chloro-N-(((3S,5S)-3-hexyl-2-oxo-1-((S)-2-phenylbutyl)-1,4-diazepan-5-yl)methyl)-2-naphthamide]	< 100
CC[C@H](CN1CC[C@@H](CNC(=O)c2ccc(Cl)c(Cl)c2)N[C@@H](CCC(=O)N2CCCCC2)C1=O)c1ccccc1 [Compound 67, 3,4-dichloro-N-(((3S,5S)-2-oxo-3-(3-oxo-3-(piperidin-1-yl)propyl)-1-((S)-2-phenylbutyl)-1,4-diazepan-5-yl)methyl)benzamide]	< 10000
CC[C@H](CN1CC[C@@H](CNC(=O)c2ccc(Cl)c(Cl)c2)N[C@@H](CCO)C1=O)c1ccccc1 [Compound 80, 3,4-dichloro-N-(((3S,5S)-3-(2-hydroxyethyl)-2-oxo-1-((S)-2-phenylbutyl)-1,4-diazepan-5-yl)methyl)benzamide]	< 10000
O=C(/C=C/c1ccc(Cl)cc1)NC[C@@H]1CCN(CC(c2ccccc2)c2ccccc2)C(=O)[C@H](CC(=O)Nc2ccccn2)N1 [Compound 64, (E)-3-(4-chlorophenyl)-N-(((3S,5S)-1-(2,2-diphenylethyl)-2-oxo-3-(2-oxo-2-(pyridin-2-ylamino)ethyl)-1,4-diazepan-5-yl)methyl)acrylamide]	< 1000
CC[C@H](CN1CC[C@@H](CNC(=O)c2ccc3cc(Cl)ccc3c2)N[C@@H](CCOCc2ccccc2)C1=O)c1ccccc1 [Compound 78, N-(((3S,5S)-3-(2-(benzyloxy)ethyl)-2-oxo-1-((S)-2-phenylbutyl)-1,4-diazepan-5-yl)methyl)-6-chloro-2-naphthamide]	< 10000
Nc1ccccc1C[C@@H]1N[C@H](CNC(=O)c2ccc3ccccc3c2)CCN(CC(c2ccccc2)c2ccccc2)C1=O [Compound 69, N-(((3S,5S)-3-(2-aminobenzyl)-1-(2,2-diphenylethyl)-2-oxo-1,4-diazepan-5-yl)methyl)-2-naphthamide]	< 1000
O=C(NC[C@@H]1CCN(CC(c2ccccc2)c2ccccc2)C(=O)[C@H](CCc2ccccc2)N1)c1ccc2ccccc2c1 [Compound 57, N-(((3S,5S)-1-(2,2-diphenylethyl)-2-oxo-3-phenethyl-1,4-diazepan-5-yl)methyl)-2-naphthamide]	< 1000
CC[C@H](CN1CC[C@@H](CNC(=O)c2ccc3cc(Cl)ccc3c2)N[C@@H](CCCCO)C1=O)c1ccccc1 [Compound 76, 6-chloro-N-(((3S,5S)-3-(4-hydroxybutyl)-2-oxo-1-((S)-2-phenylbutyl)-1,4-diazepan-5-yl)methyl)-2-naphthamide]	< 100
NC(=O)CC[C@@H]1N[C@H](CNC(=O)c2ccc3ccccc3c2)CCN(CC(c2ccccc2)c2ccccc2)C1=O [Compound 52, N-(((3S,5S)-3-(3-amino-3-oxopropyl)-1-(2,2-diphenylethyl)-2-oxo-1,4-diazepan-5-yl)methyl)-2-naphthamide]	< 1000
O=C(/C=C/c1ccc(Cl)cc1)NC[C@@H]1CCN(CC(c2ccccc2)c2ccccc2)C(=O)[C@H](CC(=O)N2CCCCC2)N1 [Compound 65, (E)-3-(4-chlorophenyl)-N-(((3S,5S)-1-(2,2-diphenylethyl)-2-oxo-3-(2-oxo-2-(piperidin-1-yl)ethyl)-1,4-diazepan-5-yl)methyl)acrylamide]	< 1000
CC[C@H](CN1CC[C@@H](CNC(=O)c2ccc3cc(Cl)ccc3c2)N[C@@H](CCC2CCCCC2)C1=O)c1ccccc1 [Compound 74, 6-chloro-N-(((3S,5S)-3-(2-cyclohexylethyl)-2-oxo-1-((S)-2-phenylbutyl)-1,4-diazepan-5-yl)methyl)-2-naphthamide]	< 10000
O=C(NC[C@@H]1CCN(CC(c2ccccc2)c2ccccc2)C(=O)[C@H](CC2CCCCC2)N1)c1ccc2ccccc2c1 [Compound 53, N-(((3S,5S)-3-(cyclohexylmethyl)-1-(2,2-diphenylethyl)-2-oxo-1,4-diazepan-5-yl)methyl)-2-naphthamide]	< 1000

Source: US8440653B2, “3-substituted-1,4-diazepan-2-one melanocortin-5 receptor antagonists” (Mimetica Pty Ltd, priority 2008, dated 2013)
